# Test: In vitro biotransformation rate, rainbow trout liver S9 (OECD TG 319)
# Type: in vitro ADME
# Experimental: In brief, rainbow trout liver S9 homogenate was preincubated in buffer and cofactors, followed by 120 min of incubation with bisphenol. From each duplicate, 50 μL of subsamples was taken at timepoints 0, 2, 5, 15, 30, 60, 90, and 120 min and mixed with 200 μL of ice-cold methanol. The protocol of the procedure is described further in Section 2.
# 1042. Biotransformation rate estimation methodology
# 106Trinova Biochem; Lot: 180216) was pre-incubated at 11°C in K 2HPO4/KH2PO4 buffer
# 107(pH=7.8; 1 mL final volume) containing alamethicin from Trichoderma viride (25 μg/mL), and
# 108cofactors NADPH (2 mM), UDPGA (2 mM), GSH (5 mM), and PAPS (0.1 mM). After 10 min
# 109of preincubation, biotransformation was started by adding 5 µL of bisphenol test compound
# 110dissolved in methanol (1 µM final concentration). […]
structure (smiles),measurement,setting,value
"Oc1ccc(C2(c3ccc(O)cc3)CCCCC2)cc1 [BPZ, bisphenol Z]",CL,both series combined,0.30 mL/(h x mg)
same,"CLin vivo,int (in vivo intrinsic clearance)","from measured S9 clearance, transformed as suggested by Nichols et al.",17.4 L/d/Kg fish
same,CL (clearance rate),"in vitro incubation with rainbow trout liver S9, assuming 163 mg S9 protein/g liver",1.16 × 10^3 mL/d/g liver
same,CL,series 1 (s1),0.33 mL/(h x mg)
same,k (first-order disappearance rate constant),series 1 (s1),0.32 h⁻¹
same,CL,series 2 (s2),0.26 mL/(h x mg)
same,k (first-order disappearance rate constant),series 2 (s2),0.26 h⁻¹
